pIC50: −log10 of the molar value.
How the values were obtained:
[1] = Selectivity index, ratio of IC50 for african green monkey (Cercopithecus aethiops) Vero cells to IC50 for Plasmodium falciparum D6; assay type: toxicity, cell-based; settings: read-out: Ratio IC50
[2] = Selectivity index, ratio of IC50 for african green monkey (Cercopithecus aethiops) Vero cells to IC50 for Plasmodium falciparum W2; assay type: toxicity, cell-based; settings: read-out: Ratio IC50
[3] = test system: Vero; test: Cytotoxicity against african green monkey Vero cells up to 16.72 uM after 72 hrs by neutral red assay; assay type: cell-based; settings: chlorocebus sabaeus
[4] = test system: Plasmodium falciparum; test: Antimalarial activity against chloroquine-sensitive Plasmodium falciparum D6 in erythrocytes after 72 hrs by LDH activity; assay type: functional, organism-based; settings: D6, 72 h
[5] = test system: Plasmodium falciparum; test: Antimalarial activity against chloroquine-resistant Plasmodium falciparum W2 in erythrocytes after 72 hrs by LDH activity; assay type: functional, organism-based; settings: W2, 72 h

SMILES	selectivity ratio [1]	selectivity ratio [2]	Activity [3]	pIC50 [4]	pIC50 [5]
CCCCc1ccc(C2OOC(c3ccc(CCCC)cc3)OO2)cc1 (stereo not drawn)	> 3.7	> 2.8	Non-toxic	–	–
CC(C)(C)c1ccc(C2OOC(c3ccc(C(C)(C)C)cc3)OO2)cc1 (stereo not drawn)	> 6.1	> 3.4	Non-toxic	–	–
Cc1ccc(C2OOC(c3ccc(C(C)(C)C)cc3)OO2)cc1 (stereo not drawn)	> 25.1	> 19	Non-toxic	–	–
CC(C)c1ccc(C2OOC(c3ccc(C(C)C)cc3)OO2)cc1 (stereo not drawn)	> 21.6	> 14	Non-toxic	–	–
CCCc1ccc(C2OOC(c3ccc(CCC)cc3)OO2)cc1 (stereo not drawn)	> 23.8	> 19	Non-toxic	–	–
COc1ccc(C2OOC(c3ccc(C)cc3)OO2)cc1 (stereo not drawn)	> 21.6	> 15.4	Non-toxic	–	–
CCN(CC)CCCC(C)Nc1ccnc2cc(Cl)ccc12 (stereo not drawn) [CHLOROQUINE]	–	–	Non-toxic	–	–
CCc1ccc(C2OOC(c3ccc(CC)cc3)OO2)cc1 (stereo not drawn)	> 15.9	> 15.9	Non-toxic	6.00	–
Cc1ccc(C2OOC(c3ccc(C(C)C)cc3)OO2)cc1 (stereo not drawn)	> 26.4	> 20.7	Non-toxic	–	–
CCc1ccc(C2OOC(c3ccc(C)cc3)OO2)cc1 (stereo not drawn)	> 43.6	> 36.7	Non-toxic	–	–
COC(=O)c1ccc(C2OOC(c3ccc(C)cc3)OO2)cc1 (stereo not drawn)	> 4	> 2.5	Non-toxic	5.42	5.22
C[C@@H]1CC[C@H]2[C@@H](C)C(=O)O[C@@H]3O[C@@]4(C)CC[C@@H]1[C@]32OO4 [ARTEMISININ]	> 476	> 1400	Non-toxic	–	7.82

Source: ChEMBL document CHEMBL1153303, “Iodine-catalyzed one-pot synthesis and antimalarial activity evaluation of symmetrically and asymmetrically substituted 3,6-diphenyl[1,2,4,5]tetraoxanes” (Bioorg Med Chem Lett, 2009)
